Literature values, collected in patent publication US9205152B2, “Melt-blended protein composition” (Kimberly-Clark Worldwide, Inc., priority 2010, dated 2015).

Settings: pH prior to incorporation into the composition

pH: about 6
Structure (SMILES): OCC(O)CO [glycerol]
